Experimental data reported in patent US10899755B2, “Benzothiazole compounds and uses thereof” (Incyte Corporation, priority 2018, dated 2021).

What was measured:
HPK1 [1] = assay: HPK1 Kinase Binding Assay; conditions: active HPK1 (SignalChem M23-11G), tracer 222, LanthaScreen Eu-Anti GST antibody, one hour incubation at 25° C.
Description: (§1) A stock solution of 1 mM test compound was prepared in DMSO. The compound plate was prepared by 3-fold and 11-point serial dilutions. 0.1 μL of the compound in DMSO was transferred from the compound plate to the white 384 well polystyrene plates. The assay buffer contained 50 mM HEPES, pH 7.5, 0.01% Tween-20, 5 mM MgCl2, 0.01% BSA, and 5 mM DTT. 5 μL of 4 nM active HPK1 (SignalChem M23-11G) prepared in the buffer was added to the plate. The enzyme concentration given was based on the given stock concentration reported by the vender. […] After one hour incubation at 25° C., the plates were read on a PHERAstar FS plate reader (BMG Labtech). Ki values were determined.

HPK1 [2] = biological target: HPK1 (Homo sapiens, UniProt Q92918); assay: HPK1 Kinase Binding Assay; conditions: active HPK1 (SignalChem M23-11G), tracer 222, LanthaScreen Eu-Anti GST antibody, one hour incubation at 25° C.
Chain of HPK1 (Homo sapiens, UniProt Q92918) (Q92918 whole entry, looked up): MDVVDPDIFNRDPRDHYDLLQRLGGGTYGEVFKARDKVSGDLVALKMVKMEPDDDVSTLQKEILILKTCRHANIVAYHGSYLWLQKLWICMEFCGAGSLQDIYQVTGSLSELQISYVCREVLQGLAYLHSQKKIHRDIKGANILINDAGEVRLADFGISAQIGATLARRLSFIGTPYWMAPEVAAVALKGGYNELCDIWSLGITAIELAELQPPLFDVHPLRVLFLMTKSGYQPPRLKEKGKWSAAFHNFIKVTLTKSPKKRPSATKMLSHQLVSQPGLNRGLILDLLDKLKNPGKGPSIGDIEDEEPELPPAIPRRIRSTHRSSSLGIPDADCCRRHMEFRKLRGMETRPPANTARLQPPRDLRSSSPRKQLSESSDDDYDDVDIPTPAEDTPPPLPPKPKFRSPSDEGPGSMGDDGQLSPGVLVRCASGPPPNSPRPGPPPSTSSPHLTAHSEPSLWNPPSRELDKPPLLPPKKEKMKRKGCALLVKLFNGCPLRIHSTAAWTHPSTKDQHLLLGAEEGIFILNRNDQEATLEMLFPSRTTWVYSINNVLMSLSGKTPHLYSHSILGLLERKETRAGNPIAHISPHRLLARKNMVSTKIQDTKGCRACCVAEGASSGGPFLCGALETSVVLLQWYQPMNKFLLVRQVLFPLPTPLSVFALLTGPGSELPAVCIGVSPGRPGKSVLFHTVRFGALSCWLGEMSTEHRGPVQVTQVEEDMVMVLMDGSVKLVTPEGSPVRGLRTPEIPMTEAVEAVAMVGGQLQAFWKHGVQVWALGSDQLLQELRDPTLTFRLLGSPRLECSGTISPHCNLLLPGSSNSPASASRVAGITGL
Description: as §1

| Ki (HPK1 [1]) [nM] | Ki (HPK1 [2]) [nM] | SMILES |
| --- | --- | --- |
| < 100 | – | Cc1nc2c(N3CC[C@@H](N)C3)c(NC(=O)c3ccnc(-c4c(F)cccc4C(F)(F)F)n3)ccc2s1 [Example 3, (R)—N-(4-(3-Aminopyrrolidin-1-yl)-2-methylbenzo[d]thiazol-5-yl)-2-(2-fluoro-6-(trifluoromethyl)phenyl)pyrimidine-4-carboxamide] |
| – | < 100 | [2H]C([2H])([2H])Oc1ccc(C#N)c(F)c1-c1nccc(C(=O)Nc2ccc3sc(C)nc3c2N2C[C@H](N)C[C@H]2CO)n1 [Example 17, N-(4-((2S,4R)-4-Amino-2-(hydroxymethyl)pyrrolidin-1-yl)-2-methylbenzo[d]thiazol-5-yl)-2-(3-cyano-2-fluoro-6-(methoxy-d3)phenyl)pyrimidine-4-carboxamide] |
| – | 100 to 500 | COc1cccc(C(N)=O)c1-c1nccc(C(=O)Nc2ccc3sc(C)nc3c2N2C[C@H](N)C[C@H]2CO)n1 [Example 14, N-(4-((2S,4R)-4-Amino-2-(hydroxymethyl)pyrrolidin-1-yl)-2-methylbenzo[d]thiazol-5-yl)-2-(2-carbamoyl-6-methoxyphenyl)pyrimidine-4-carboxamide] |
